In article PMC10419252, “Synthesis, Properties, and Biomedical Application of Dicationic Gemini Surfactants with Dodecane Spacer and Carbamate Fragments” (International Journal of Molecular Sciences, 2023):
Values joined by “and” are separate entries in the source; they are usually repeats but may differ in a detail not shown here. Equal values may be shown once. Read-outs that look alike come from different tables or passages of the source.

Assays:
[1] = Indomethacin solubilization, spectrophotometry; format: physicochemical; details: 298 K
Procedure: (§1) The cmc and the solubilizing capacity (S) of surfactants were determined using the spectral azo dye OOT and the non-steroidal anti-inflammatory drug IND. To obtain a saturated solution, an excess of OOT and IND was added to 2 mL of a surfactant solution, stirred, and kept for 48 and 24 h, respectively. After that, the solutions were filtered using Millex® Syringe Filters (Millipore, Burlington, MA, USA) with a pore size of 450 nm, and the optical density was measured. The absorption spectra were recorded on a Specord 250 Plus spectrophotometer (Analytik Jena AG, Jena, Germany). Quartz cells with a thickness of 1 and 0.5 cm (Hellma Analytics, Müllheim, Germany) were used for measurements.
(§2) The solubilizing capacity (S) was determined using the following formula:S = b/ε, where b is D/l = f (Csurf) dependency slope (above cmc), ε is the extinction coefficient (17,400 L/mol∙cm for OOT, and the extinction coefficients of IND are determined in GS solutions and presented in Figure S10).

[2] = tested on: Escherichia coli ATCC 25922; test: Antimicrobial activity (Ec); format: cell-based
Procedure: (§3) The antimicrobial activity of the compounds was tested on Gram-positive Staphylococcus aureus ATCC 6538P FDA 209P (Sa), Bacillus cereus ATCC 10702 NCTC 8035 (Bc), Enterococcus faecalis ATCC 29212 (Ef), and Gram-negative bacteria Escherichia coli ATCC 25922 (Ec), Pseudomonas aeruginosa ATCC 9027 (Pa), including methicillin-resistant strains of S. aureus MRSA-1 (resistant to fluoroquinolones and beta-lactams) and MRSA-2 (resistant to beta-lactams). Antifungal activity was studied against Candida albicans ATCC 10231 (Ca), Trichophyton mentagrophytes var. gypseum 1773 (Tm), and Aspergillus niger BKMF-1119 (An). A more detailed description of the experiment is published in [21].

[3] = Tensiometry (Du Nouy ring), surface tension isotherms; format: physicochemical; details: for Amin (surface area per surfactant molecule) / Гmax∙10^6 (maximum surface excess) / ∆Gmic (free energy of micellization) / cmctens: 298 K; for calculated adsorption layer thickness: air/water interface; for cmctens: tensiometry
Procedure: The surface tension isotherms of the micellar solutions were determined using the Du Nouy platinum ring detachment method on a K6 tensiometer (KRŰSS GmbH, Hamburg, Germany). For the experiment, surfactant solutions with a volume of 10 mL were prepared. The measurements were carried out strictly at 298 K in glass beakers, the diameter of which exceeded the diameter of the platinum ring. Surface tension measurements were carried out until stable values were obtained. After each measurement, the ring was degreased in ethanol and thoroughly dried. The cmc of the micellar solutions was determined from the breakpoint on the isotherm of surface tension versus surfactant concentration. The thermodynamic parameters of adsorption and micellization were calculated for all systems based on the obtained tensiometric curves.

Pyrene fluorimetry = format: physicochemical; details: 298 K
Procedure: To determine cmc by fluorimetry, a hydrophobic probe pyrene was added to a series of surfactant solutions at a concentration of 1 μM. The solutions were kept for 30–40 min for complete solubilization of the probe. The fluorescent emission spectra of pyrene were recorded on an F-7100 fluorimeter (Hitachi, Tokyo, Japan) using 10 × 4 mm quartz cuvette (Hellma Analytics, Müllheim, Germany) with the following settings: λex = 335 nm, λem = 350–600 nm, and scanning speed = 1200 nm/min. The cmc was calculated from the dependence of the pyrene polarity index (the ratio of the intensities of the first (373 nm) and third (383 nm) peaks) on the surfactant concentration.

[4] = tested on: Candida albicans ATCC 10231; test: Antifungal activity (Ca); format: cell-based
Procedure: as §3

[5] = tested on: methicillin-resistant S. aureus MRSA-2 (resistant to beta-lactams); test: Antimicrobial activity (MRSA-2); format: cell-based
Procedure: as §3

[6] = Orange OT solubilization, spectrophotometry (Schott method for Nagg); format: physicochemical; details: for cmc, Spectrophotometry: OOT; for Nagg (aggregation number): Schott approach, OOT solubilization
Procedure: as §1, §2
The OOT solubilization method (Schott method) was used to calculate the micelle Nagg. The Nagg values were calculated for each point on the curve of dependence of the OOT-reduced optical density on the surfactant concentration above the cmc according to the presented formula:[…], where ε is the extinction coefficient of OOT, Csurf is the surfactant concentration above cmc, and D is the optical density.

[7] = tested on: Pseudomonas aeruginosa ATCC 9027; test: Antimicrobial activity (Pa); format: cell-based
Procedure: as §3

[8] = molecular target: T1, human acetylcholinesterase (hAChE) (Homo sapiens, UniProt P22303); test: biochemical; details: for SIhBChE/hAChE (selectivity index): IC50 hBChE / IC50 hAChE
T1 construct: purchased Sigma-Aldrich
Procedure: (§4) Stock solutions (0.01 M) of the compounds were dissolved in H2O. The inhibitory activity of compounds against hAChE and hBChE was measured using Ellman’s method. Enzyme-catalyzed hydrolysis was carried out in 0.1 M PBS (pH = 8.0) containing 0.1 nM hAChE or hBChE, 0.1 mM 5,5′-dithiobis-(2-nitrobenzoic acid) and 1mM acetylthiocholine or butyrylthiocholine as substrates. The tested compounds were incubated with the enzyme for 5 min prior to the addition of the substrate. Analyses were performed at 298 K using a Shimadzu UV-1800 spectrophotometer (Shimadzu Co., Kyoto, Japan) at 412 nm. The substrate hydrolysis rate was measured within 2 min. A sample without inhibitor was used as a control (100% cholinesterase activity). A sample without substrate was used as a blank. The experiments were conducted in triplicate. The percentage of enzyme inhibition was determined using OriginPro 8.5 software (OriginLab Corporation, Northampton, MA, USA) by plotting a percentage of the inhibition versus compound concentration. IC50 values (inhibitor concentration required to inhibit enzyme activity by 50%) were determined by the Hill equation: E/Emax=[I]^n/IC50n+[I]^n, where E is enzyme activity in the presence of the compound, and [I] is the compound concentration.

[9] = tested on: methicillin-resistant S. aureus MRSA-1 (resistant to fluoroquinolones and beta-lactams); test: Antimicrobial activity (MRSA-1); format: cell-based
Procedure: as §3

[10] = tested on: Bacillus cereus ATCC 10702 NCTC 8035; test: Antimicrobial activity (Bc); format: cell-based
Procedure: as §3

[11] = tested on: Trichophyton mentagrophytes var. gypseum 1773; test: Antifungal activity (Tm); format: cell-based
Procedure: as §3

[12] = tested on: Staphylococcus aureus ATCC 6538P FDA 209P; test: Antimicrobial activity (Sa); format: cell-based
Procedure: as §3

[13] = tested on: Enterococcus faecalis ATCC 29212; test: Antimicrobial activity (Ef); format: cell-based
Procedure: as §3

Conductometry = format: physicochemical; details: 298 K
Procedure: The electrical conductivity of the micellar solutions was determined on an InoLab Cond 7110 conductometer (WTW, Weilheim, Germany). For the experiment, surfactant solutions with a volume of 10 mL were prepared. The electrical conductivity of all solutions was recorded at 298 K, and the electrode was washed with purified water after each measurement. The cmc was determined from the breakpoint of the dependence of electrical conductivity on the concentration of surfactants.

[14] = molecular target: T2, human butyrylcholinesterase (hBChE) (Homo sapiens, UniProt P06276); test: In vitro cholinesterase inhibition, Ellman's method (hBChE); format: biochemical
T2 construct: purchased Sigma-Aldrich
Procedure: as §4

[15] = tested on: Aspergillus niger BKMF-1119; test: Antifungal activity (An); format: cell-based
Procedure: as §3

[16] = Electrode potential measurement with Br− selective electrode (potentiometry); format: physicochemical; details: 298 K
Procedure: The electrode potential measurements were performed for the Br^− counterion using the I-160MI laboratory ionomer (JSC Scientific and Production Association of the Measuring Equipment, Moscow, Russia). Br^− selective electrode (ELIS-131Br) and a reference electrode (ESr-10101) were used for measurement of the electromotive force (ΔE) of aqueous solution of surfactants (the concentration from 0.02 to 0.5 mM for 12-12-12(Et); from 0.002 to 0.05 mM for 14-12-14(Et)). To calibrate the ionomer, a series of KBr solutions were prepared in the concentration range of 0.1 mM to 100 mM.
β = 0.5(2Ct − CBr^−)/(Ct − cmc).

[17] = alkyltrimethylammonium bromides; cited from earlier work

T1 sequence (P22303 32-614): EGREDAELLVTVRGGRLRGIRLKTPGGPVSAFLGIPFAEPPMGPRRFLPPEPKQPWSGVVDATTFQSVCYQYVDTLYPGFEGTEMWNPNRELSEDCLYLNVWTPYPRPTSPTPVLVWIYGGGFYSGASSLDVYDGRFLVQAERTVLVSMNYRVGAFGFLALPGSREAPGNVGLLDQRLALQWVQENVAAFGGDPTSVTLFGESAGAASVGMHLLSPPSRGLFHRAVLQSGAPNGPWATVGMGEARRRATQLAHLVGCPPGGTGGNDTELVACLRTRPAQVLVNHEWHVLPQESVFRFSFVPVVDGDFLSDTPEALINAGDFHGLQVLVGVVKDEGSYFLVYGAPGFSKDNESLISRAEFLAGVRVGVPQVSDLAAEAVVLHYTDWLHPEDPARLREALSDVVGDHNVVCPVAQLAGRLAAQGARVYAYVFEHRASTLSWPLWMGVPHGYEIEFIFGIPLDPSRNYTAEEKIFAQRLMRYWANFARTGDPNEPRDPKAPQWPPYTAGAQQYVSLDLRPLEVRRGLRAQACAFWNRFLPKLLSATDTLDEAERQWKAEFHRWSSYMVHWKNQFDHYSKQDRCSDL
T2 sequence (P06276 29-602): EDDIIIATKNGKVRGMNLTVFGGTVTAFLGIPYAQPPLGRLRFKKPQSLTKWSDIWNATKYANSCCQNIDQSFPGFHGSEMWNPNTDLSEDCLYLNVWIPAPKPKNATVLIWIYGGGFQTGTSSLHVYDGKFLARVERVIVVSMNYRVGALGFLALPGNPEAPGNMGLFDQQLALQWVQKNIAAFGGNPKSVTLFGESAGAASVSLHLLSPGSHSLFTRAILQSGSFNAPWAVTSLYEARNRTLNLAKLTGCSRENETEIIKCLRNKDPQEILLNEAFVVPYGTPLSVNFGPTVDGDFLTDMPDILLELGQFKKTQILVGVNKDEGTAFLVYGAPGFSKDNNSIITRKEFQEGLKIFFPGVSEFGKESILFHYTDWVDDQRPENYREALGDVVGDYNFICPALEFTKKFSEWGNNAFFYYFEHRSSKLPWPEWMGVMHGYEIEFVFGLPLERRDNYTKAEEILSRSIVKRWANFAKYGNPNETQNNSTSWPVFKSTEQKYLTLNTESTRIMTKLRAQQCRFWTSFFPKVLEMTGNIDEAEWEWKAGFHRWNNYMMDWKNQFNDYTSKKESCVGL

## CCCCCCCCCC[N+](C)(CCCCCCCCCCCC[N+](C)(CCCCCCCCCC)CCOC(=O)NCC)CCOC(=O)NCC (centres unmarked) [10-12-10(Et)]
[1]
  S (solubilizing capacity), IND: 0.13 molprobe/molGS
[2]
  MBC, Ec: 0.5 ± 0.03 µg/mL
  MIC, Ec: 0.5 ± 0.03 µg/mL
[3]
  Amin (surface area per surfactant molecule): 2.34 nm^2
  Гmax∙10^6 (maximum surface excess): 0.71 mol∙m^−2
  ∆Gmic (free energy of micellization): -6.09 kcal/mol
  calculated adsorption layer thickness: 0.7 nm
  cmctens: 1 mM and 1 ± 0.03 mM
Pyrene fluorimetry
  cmc, Fluorimetry: 0.9 mM and 0.9 ± 0.03 mM
[4]
  MFC, Ca: 15.6 ± 1.2 µg/mL
  MIC, Ca: 0.9 ± 0.07 µg/mL
[5]
  MBC, MRSA-2: 3.9 ± 0.3 µg/mL
  MIC, MRSA-2: 0.5 µg/mL and 0.5 ± 0.03 µg/mL
[6]
  S (solubilizing capacity), OOT: 0.021 molOOT/molGS
[6]; 298 K
  S (solubilizing capacity), OOT: 0.021 molprobe/molGS
  cmc, Spectrophotometry: 1.5 ± 0.1 mM
  Nagg (aggregation number): 50
[7]
  MBC, Pa: 3.9 ± 0.3 µg/mL
  MIC, Pa: 1.9 ± 0.1 µg/mL
[8]
  IC50: 0.0431 ± 0.0009 µM
  SIhBChE/hAChE (selectivity index): 0.44
[9]
  MBC, MRSA-1: 1.9 ± 0.1 µg/mL
  MIC, MRSA-1: 0.5 µg/mL and 0.5 ± 0.03 µg/mL
[10]
  MBC, Bc: 0.5 ± 0.03 µg/mL
  MIC, Bc: 0.5 ± 0.04 µg/mL
[11]
  MFC, Tm: 15.6 ± 1.3 µg/mL
  MIC, Tm: 0.9 ± 0.07 µg/mL
[12]
  MBC, Sa: 0.5 ± 0.04 µg/mL
  MIC, Sa: 0.5 ± 0.03 µg/mL
[13]
  MBC, Ef: 0.5 ± 0.04 µg/mL
  MIC, Ef: 0.5 ± 0.03 µg/mL
Conductometry
  cmccond: 1.5 mM and 1.5 ± 0.04 mM
  βcond (degree of counterion binding): 0.41
[14]
  IC50: 0.019 ± 0.005 µM
[15]
  MFC, An: >250 µg/mL
  MIC, An: 250 ± 19 µg/mL

## CCCCCCCCCCCCCC[N+](C)(CCCCCCCCCCCC[N+](C)(CCCCCCCCCCCCCC)CCOC(=O)NCC)CCOC(=O)NCC (centres unmarked) [14-12-14(Et)]
[1]
  S (solubilizing capacity), IND: 1.51 molprobe/molGS
[2]; Escherichia coli, ATCC25922, read-out: MBC, Ec
  MBC: 31.3 ± 2.6 µg/mL
[2]; Escherichia coli, ATCC25922, read-out: MIC, Ec
  MIC: 31.3 ± 2.5 µg/mL
[3]
  Amin (surface area per surfactant molecule): 0.52 nm^2
  Гmax∙10^6 (maximum surface excess): 3.21 mol∙m^−2
  ∆Gmic (free energy of micellization): -8.84 kcal/mol
  calculated adsorption layer thickness: 3.3 nm
  cmctens: 0.013 mM and 0.013 ± 0.0007 mM
Pyrene fluorimetry
  cmc, Fluorimetry: 0.014 mM and 0.014 ± 0.0004 mM
[4]; Candida albicans, ATCC10231, read-out: MFC, Ca
  MFC: 250 ± 21 µg/mL
[4]; Candida albicans, ATCC10231, read-out: MIC, Ca
  MIC: 250 ± 19 µg/mL
[5]; Staphylococcus aureus, MRSA, read-out: MBC, MRSA-2
  MBC: 7.8 ± 0.7 µg/mL
[5]; Staphylococcus aureus, MRSA, read-out: MIC, MRSA-2
  MIC: 7.8 ± 0.7 µg/mL
[6]
  S (solubilizing capacity), OOT: 0.047 molOOT/molGS
[6]; 298 K
  S (solubilizing capacity), OOT: 0.047 molprobe/molGS
  cmc, Spectrophotometry: 0.045 ± 0.003 mM
  Nagg (aggregation number): 16
[7]; Pseudomonas aeruginosa, ATCC9027, read-out: MBC, Pa
  MBC: 125 ± 10 µg/mL
[7]; Pseudomonas aeruginosa, ATCC9027, read-out: MIC, Pa
  MIC: 125 ± 10 µg/mL
[8]
  IC50: 0.011 ± 0.0005 µM
  SIhBChE/hAChE (selectivity index): 131
[9]; Staphylococcus aureus, MRSA, read-out: MBC, MRSA-1
  MBC: 7.8 ± 0.6 µg/mL
[9]; Staphylococcus aureus, MRSA, read-out: MIC, MRSA-1
  MIC: 7.8 ± 0.6 µg/mL
[10]; Bacillus cereus, read-out: MBC, Bc
  MBC: 125 ± 9 µg/mL
[10]; Bacillus cereus, read-out: MIC, Bc
  MIC: 125 ± 10 µg/mL
[11]; Trichophyton mentagrophytes, read-out: MFC, Tm
  MFC: 250 ± 18 µg/mL
[11]; Trichophyton mentagrophytes, read-out: MIC, Tm
  MIC: 250 ± 19 µg/mL
[12]; Staphylococcus aureus, read-out: MBC, Sa
  MBC: 3.9 ± 0.3 µg/mL
[12]; Staphylococcus aureus, read-out: MIC, Sa
  MIC: 3.9 ± 0.2 µg/mL
[13]; Enterococcus faecalis, ATCC29212, read-out: MBC, Ef
  MBC: 3.9 ± 0.2 µg/mL
[13]; Enterococcus faecalis, ATCC29212, read-out: MIC, Ef
  MIC: 3.9 ± 0.3 µg/mL
[16]
  βpot (degree of counterion binding): 0.3
Conductometry
  cmccond: 0.05 mM and 0.05 ± 0.0013 mM
  βcond (degree of counterion binding): 0.44
[14]
  IC50: 1.44 ± 0.52 µM
[15]; Aspergillus niger, BKMF1119, read-out: MFC, An
  MFC: > 250 µg/mL
[15]; Aspergillus niger, BKMF1119, read-out: MIC, An
  MIC: > 250 µg/mL

## CCCCCCCCCCCC[N+](C)(C)C.[Br-] [C12TAB]
[17]
  Nagg: 55
